From ChEMBL document CHEMBL1201862, “PubChem BioAssay data set” (2004)
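Compound exposure: 48 hours, 5 concentrations, 96-well plates. GI50 = concentration required for 50% inhibition of growth.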 Activity calls are given as the source filed them. Cut-off read from the data, not from the text of the source: active = GI50 up to about 1.1 µM and inactive = higher.

Legend:
Assay in all cases: NCI anticancer screen, dose series, 48 h
[1] = tested on: COLO 205
[2] = tested on: OVCAR-3
[3] = tested on: HOP-62
[4] = tested on: OVCAR-5
[5] = tested on: A498
[6] = tested on: PC-3
[7] = tested on: MDA-MB-231
[8] = tested on: UO-31
[9] = tested on: MOLT-4
[10] = tested on: UACC-257
[11] = tested on: SN12C
[12] = tested on: MCF7
[13] = tested on: SF-539
[14] = tested on: Hs-578T
[15] = tested on: CCRF-CEM
[16] = tested on: Malme-3M
[17] = tested on: MDA-N
[18] = tested on: SF-268
[19] = tested on: T47D
[20] = tested on: SNB-75
[21] = tested on: HCT-15
[22] = tested on: HOP-92
[23] = tested on: M14
[24] = tested on: EKVX
[25] = tested on: NCI-H460
[26] = tested on: CAKI-1
[27] = tested on: IGROV-1
[28] = tested on: SNB-19
[29] = tested on: KM12
[30] = tested on: TK-10
[31] = tested on: NCI-H522
[32] = tested on: MDA-MB-435
[33] = tested on: SK-MEL-5
[34] = tested on: LOX IMVI
[35] = tested on: ACHN
[36] = tested on: A549
[37] = tested on: HL-60
[38] = tested on: HCC 2998
[39] = tested on: DU-145
[40] = tested on: U-251
[41] = tested on: SR
[42] = tested on: RXF 393
[43] = tested on: SK-OV-3
[44] = tested on: 786-0
[45] = tested on: RPMI-8226
[46] = tested on: SW-620
[47] = tested on: K562
[48] = tested on: UACC-62
[49] = tested on: HCT-116
[50] = tested on: SK-MEL-2
[51] = tested on: SF-295
[52] = tested on: NCI-H23
[53] = tested on: SK-MEL-28
[54] = tested on: OVCAR-4
[55] = tested on: OVCAR-8
[56] = tested on: NCI/ADR-RES
[57] = tested on: NCI-H226
[58] = tested on: HT-29

For `O=C1c2ccccc2C(=O)c2sc(Nc3ccccc3C(F)(F)F)nc21`, the GI50 [1] was 8.89 µM (inactive), the GI50 [2] was 7.33 µM (inactive) and the GI50 [3] was 14 µM (inactive). The GI50 [4] was 22.4 µM (inactive), the GI50 [5] was 15.3 µM (inactive) and the GI50 [6] was 12.2 µM (inactive). The GI50 [7] was 0.264 µM (active), the GI50 [8] was 12.1 µM (inactive) and the GI50 [9] was 3.45 µM (inactive). The GI50 [10] was 15.6 µM (inactive), the GI50 [11] was 32.6 µM (inactive) and the GI50 [12] was 16.4 µM (inactive). For the same compound, the GI50 [13] was 19.9 µM (inactive), the GI50 [14] was 11.9 µM (inactive) and the GI50 [15] was 3.79 µM (inactive). The GI50 [16] was 12.4 µM (inactive), the GI50 [17] was 12.5 µM (inactive) and the GI50 [18] was 11 µM (inactive). For the same compound, the GI50 [19] was 12 µM (inactive), the GI50 [20] was 15.1 µM (inactive) and the GI50 [21] was 7.29 µM. The GI50 [22] was 10.6 µM (inactive), the GI50 [23] was 21.7 µM (inactive) and the GI50 [24] was 18.2 µM (inactive). For the same compound, the GI50 [25] was 21.8 µM (inactive), the GI50 [26] was 8.77 µM (inactive) and the GI50 [27] was 12.5 µM (inactive). The GI50 [28] was 21.5 µM (inactive), the GI50 [29] was 10.2 µM (inactive) and the GI50 [30] was 19.7 µM (inactive). For the same compound, the GI50 [31] was 8.15 µM (inactive), the GI50 [32] was 4.82 µM (inactive) and the GI50 [33] was 8.05 µM (inactive). The GI50 [34] was 25.1 µM (inactive), the GI50 [35] was 16.6 µM (inactive) and the GI50 [36] was 21.2 µM (inactive). The GI50 [37] was 3.74 µM (inactive), the GI50 [38] was 15.5 µM (inactive) and the GI50 [39] was 16.9 µM (inactive). For the same compound, the GI50 [40] was 10.6 µM (inactive), the GI50 [41] was 4.16 µM (inactive) and the GI50 [42] was 20.8 µM (inactive). The GI50 [43] was 16.7 µM (inactive), the GI50 [44] was 16.4 µM (inactive) and the GI50 [45] was 13 µM (inactive). For the same compound, the GI50 [46] was 6.1 µM (inactive), the GI50 [47] was 3.01 µM (inactive) and the GI50 [48] was 11.6 µM (inactive). For the same compound, the GI50 [49] was 28.6 µM (inactive), the GI50 [50] was 11.6 µM (inactive) and the GI50 [51] was 15.6 µM (inactive). The GI50 [52] was 15.7 µM (inactive) and the GI50 [53] was 16.2 µM (inactive).

In the case of `O=C(CC(C(=O)c1ccoc1)c1ccco1)c1ccco1` (configuration not stated), the GI50 [1] is reported as > 100 µM (inactive), the GI50 [2] is reported as > 100 µM (inactive) and the GI50 [3] is reported as > 100 µM (inactive). For the same compound, the GI50 [4] was > 100 µM (inactive), the GI50 [5] was > 100 µM (inactive) and the GI50 [7] was 18.6 µM (inactive). For the same compound, the GI50 [8] was 65.9 µM (inactive), the GI50 [9] was > 100 µM (inactive) and the GI50 [10] was > 100 µM (inactive). For the same compound, the GI50 [11] was > 100 µM (inactive), the GI50 [12] was > 100 µM (inactive) and the GI50 [13] was > 100 µM (inactive). The GI50 [14] was > 100 µM (inactive), the GI50 [54] was 43.1 µM (inactive) and the GI50 [15] was 24.2 µM (inactive). For the same compound, the GI50 [17] was 29.4 µM (inactive), the GI50 [18] was > 100 µM (inactive) and the GI50 [55] was > 100 µM (inactive). The GI50 [19] was > 100 µM (inactive), the GI50 [20] was > 100 µM (inactive) and the GI50 [56] was 80.5 µM (inactive). The GI50 [57] was > 100 µM (inactive), the GI50 [21] was > 100 µM and the GI50 [22] was > 100 µM (inactive). For the same compound, the GI50 [23] was > 100 µM (inactive), the GI50 [24] was > 100 µM (inactive) and the GI50 [25] was > 100 µM (inactive). The GI50 [26] was > 100 µM (inactive), the GI50 [27] was > 100 µM (inactive) and the GI50 [29] was 57 µM (inactive). For the same compound, the GI50 [30] was > 100 µM (inactive), the GI50 [31] was > 100 µM (inactive) and the GI50 [32] was 30 µM (inactive). The GI50 [33] was > 100 µM (inactive), the GI50 [34] was > 100 µM (inactive) and the GI50 [35] was > 100 µM (inactive). For the same compound, the GI50 [36] was 79.6 µM (inactive), the GI50 [37] was > 100 µM (inactive) and the GI50 [38] was > 100 µM (inactive). For the same compound, the GI50 [39] was > 100 µM (inactive), the GI50 [40] was > 100 µM (inactive) and the GI50 [41] was 85.7 µM (inactive). For the same compound, the GI50 [58] was > 100 µM (inactive), the GI50 [42] was > 100 µM (inactive) and the GI50 [43] was > 100 µM (inactive). The GI50 [44] was > 100 µM (inactive), the GI50 [45] was > 100 µM (inactive) and the GI50 [46] was > 100 µM (inactive). The GI50 [47] was > 100 µM (inactive), the GI50 [48] was > 100 µM (inactive) and the GI50 [49] was > 100 µM (inactive). The GI50 [51] was > 100 µM (inactive), the GI50 [52] was 98.4 µM (inactive) and the GI50 [53] was 37.9 µM (inactive).
